Legend:
histamine H1 receptor = molecular target: T1, histamine H1 receptor (Homo sapiens, UniProt P35367); assay: Histamine-induced calcium streams in SK-N-SH cells, Phase 1 (H1 receptor antagonism); assay type: cell-based; settings: Phase 1: compounds prevent calcium ions entry in cells by antagonistic action on H1-receptors, histamine 10 μM, read-out: pIC50 Phase 1 (converted)
T1 construct: host or cells: SK-N-SH
Procedure: (§1) Tests of biological activity of compounds of general formula 1. In order to determine a physiological activity of the proposed compounds a focused library was compiled to include compounds of general formula 1, some of which are shown in Table 2 below. The compounds were tested as potential histamine H1 receptor antagonists, and their ability to regulate cytosolic calcium ions concentration in cells by blocking calcium channels regulated by intracellular calcium repositories was determined. Cells SK-N-SH (ATCC, USA) were grown on DMEM medium (Invitrogen, USA), containing 10% fetal calf serum (FBS) and antibiotic penicillin-streptomycin in CO2 incubator (5% CO2) until cell density was 1*10^5 cells/cm^2. The cells were removed from flask surface by reagent TrypLE Express (Invitrogen, USA), collected by centrifugation and resuspended in medium Hybridoma Serum Free Medium (HSFM, Sigma, USA) in concentration of 4*10^6 cells/ml. For measurement of cytosolic calcium concentration the cells were loaded with calcium sensitive fluorescent dye Fura 2 AM (Invitrogen, USA) by means of hatching of cells with a dye in suspension for 30 minutes at room temperature. The cells were collected by centrifugation, resuspended in HSFM, incubated in suspension for 15 minutes, collected by centrifugation, washed twice in HSFM and resuspended in HSFM in concentration of 4*10^6 cells/ml.
(§2) Registration of calcium streams in cells was carried out using spectrofluorometer Shimadzu-RF5301PC. The cells were diluted with buffer (NaCl 0.145 M, KCl 0.0054 M, NaH2PO4 0.001 M, MgSO4 0.0008 M, CaCl2 0.0018 M, HEPES 0.03 M, D-glucose 0.0112 M pH 7.4) till concentration 1*10^5 cells/ml in measuring cuvette provided with magnetic stirrer, and fluorescence was registered using a regime of two-wave excitement (340 and 380 nm, respectively) at wavelength of emission 510 nm (F1 and F2, respectively). In 20 seconds after beginning of registration 10 mM of histamine water solution was added (final concentration is 10 μM). In another 30 seconds, after achievement of calcium cytosolic concentration peak a solution of tested compound in DMSO was added and registration was continued for 3 minutes. Serial dilutions of the compounds in dimethylsulfoxide (DMSO) were prepared for determination of their biological activity, and the effect of the concentration of compound on the calcium streams induced by histamine was determined.
Transformation of fluorescence signal into calcium concentration was carried out by means of equation imbedded in program Super Ion Probe (Shimadzu), for which maximum of free calcium concentration by addition of digitonin (Sigma, USA) up to concentration of 0.1 mg/ml and zero calcium concentration by addition of ethylenediamine-tetraacetate (EDTA) up to concentration of 10 mM were determined. Kinetic curves of cytosolic calcium decrease after addition of tested compound compared to concentration after addition of histamine were calculated using single-phase exponential model by means of Prism 4 (GraphPad Software, Inc.) program: […]
In Table 2 below the values corresponding to the reciprocal logarithm of EC50(−LogEC50=pEC50) for some of tested compounds of general formula 1 used as measures of these compounds activity are presented.

[1] = system: cytosolic calcium ions concentration in cells; assay: Histamine-induced calcium streams in SK-N-SH cells, Phase 2 (acceleration of cytosolic calcium removal); assay type: cell-based; settings: Homo sapiens, Phase 2: acceleration of intraplasmatic calcium removal, histamine 10 μM, read-out: pIC50 Phase 2 (converted)
Procedure: as §1, §2
Transformation of fluorescence signal into calcium concentration was carried out by means of equation imbedded in program Super Ion Probe (Shimadzu), for which maximum of free calcium concentration by addition of digitonin (Sigma, USA) up to concentration of 0.1 mg/ml and zero calcium concentration by addition of ethylenediamine-tetraacetate (EDTA) up to concentration of 10 mM were determined. Kinetic curves of cytosolic calcium decrease after addition of tested compound compared to concentration after addition of histamine were calculated using single-phase exponential model by means of Prism 4 (GraphPad Software, Inc.) program:
[Ca]=[Ca]max*exp(−K*T)+[Ca]min,
wherein T means time after addition of tested compound, [Ca]max and [Ca]min correspond to maximum (peak meaning after addition of histamine) and minimum (equilibrium level to which the curve converges after addition of tested compound) concentrations of cytosolic calcium, and K means a kinetic constant of the decrease of cytosolic calcium concentration which is calculated by minimization of the least squares of deviations.
The dependence of calculated constants of calcium decreasing (K) on the concentration of tested compound (C) was drawn up, and using this dependence by means of program Prism 4 the value of EC50 (concentration of tested compound corresponding to half-maximum increase of a kinetic constant of cytozoic calcium concentration decrease) was defined using four parametrical equation. […]

T1 sequence (P35367 whole entry): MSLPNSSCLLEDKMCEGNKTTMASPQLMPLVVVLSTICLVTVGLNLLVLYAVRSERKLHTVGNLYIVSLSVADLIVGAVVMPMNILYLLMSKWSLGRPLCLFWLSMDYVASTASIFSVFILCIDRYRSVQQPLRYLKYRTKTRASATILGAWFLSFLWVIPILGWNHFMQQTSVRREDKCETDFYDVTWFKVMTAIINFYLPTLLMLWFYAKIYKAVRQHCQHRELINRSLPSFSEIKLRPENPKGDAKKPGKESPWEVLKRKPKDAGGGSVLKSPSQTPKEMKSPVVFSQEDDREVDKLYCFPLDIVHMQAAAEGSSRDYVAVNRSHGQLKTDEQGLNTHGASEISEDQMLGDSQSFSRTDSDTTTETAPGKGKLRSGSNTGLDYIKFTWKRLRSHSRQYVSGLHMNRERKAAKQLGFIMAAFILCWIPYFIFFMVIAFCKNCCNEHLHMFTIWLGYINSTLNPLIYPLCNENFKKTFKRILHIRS

Row | Structure (SMILES) | IC50 (histamine H1 receptor) [µM] | IC50 [1] [µM]
1 | Cc1ccc2c(c1)c1c(n2CCc2ccccn2)CCCN(C)C1 [1.1.5(1), 2,9-dimethyl-6-[2-(pyridin-2-yl)ethyl]-1,2,3,4,5,6-hexahydroazepino[4,3-b]indole] | 3.16 | 3.16
2 | Cc1ccc2c(c1)c1c(n2CCc2cccnc2)CCCN(C)C1 [1.1.5(5)] | 0.501 | 3.16
3 | Cc1ccc2c(c1)c1c(n2CCc2ccc(C)nc2)CCCN(C)C1 [1.1.5(2), 2,9-dimethyl-6-[2-(6-methylpyridin-3-yl)ethyl]-1,2,3,4,5,6-hexahydroazepino[4,3-b]indole] | 0.316 | 1.58
4 | Cc1ccc2c(c1)[C@@H]1CN(C)CCC[C@H]1N2Cc1cccnc1 (relative stereo) [1.2.6(5), trans-2,9-dimethyl-6-(pyridin-3-ylmethyl)-1,2,3,4,5,5a,6,10b-octahydroazepino[4,3-b]indole] | 0.1 | 1.58
5 | CN1CCC[C@@H]2[C@@H](C1)c1cc(F)ccc1N2CCc1cccnc1 (relative stereo) [1.2.5(5), trans-2-methyl-6-[2-(pyridin-3-yl)ethyl]-9-fluoro-1,2,3,4,5,5a,6,10b-octahydroazepino[4,3-b]indole] | 0.126 | 0.631
6 | Cc1ccc2c(c1)c1c(n2CCc2ccncc2)CCCN(C)C1 [1.1.5(3), 2,9-dimethyl-6-[2-(pyridin-4-yl)ethyl]-1,2,3,4,5,6-hexahydroazepino[4,3-b]indole] | 0.2 | 1.26
7 | Cc1ccc2c(c1)[C@@H]1CN(C)CCC[C@H]1N2Cc1ccc(C(=O)O)cc1 (relative stereo) [1.2.6(2), trans-4-(2,9-dimethyl-1,2,3,4,5,5a,10b-octahydroazepino[4,3-b]indol-6-ylmethyl)benzoic acid] | > 100 | > 100
8 | CC(=O)N1c2ccc(C)cc2[C@@H]2CN(C)CCC[C@H]21 (relative stereo) [1.2.7(4), trans-6-acetyl-2,9-dimethyl-1,2,3,4,5,5a,6,10b-octahydroazepino[4,3-b]indole] | > 100 | > 100
9 | CN1CCC[C@@H]2[C@@H](C1)c1cc(-c3ccncc3)ccc1N2CCc1cccnc1 (relative stereo) [1.2.5(6), trans-2-methyl-6-[2-(pyridin-3-yl)ethyl]-9-(pyridin-4-yl)-1,2,3,4,5,5a,6,10b-octahydroazepino[4,3-b]indole] | 0.251 | 1
10 | Cc1ccc2c(c1)[C@@H]1CN(C)CCC[C@H]1N2CCc1ccc(C)nc1 (relative stereo) [1.2.5(2), trans-2,9-dimethyl-6-[2-(6-methylpyridin-3-yl)ethyl]-1,2,3,4,5,5a,6,10b-octahydroazepino[4,3-b]indole] | 0.251 | 1
11 | Cc1ccc2c(c1)[C@@H]1CN(C)CCC[C@H]1N2Cc1ccncc1 (relative stereo) [1.2.6(6), trans-2,9-dimethyl-6-(pyridin-4-ylmethyl)-1,2,3,4,5,5a,6,10b-octahydroazepino[4,3-b]indole] | 0.2 | 5.01
12 | Cc1ccc2c(c1)[C@@H]1CN(C)CCC[C@H]1N2CCc1ccccc1 (relative stereo) [1.2.6(3), trans-2,9-dimethyl-6-phenethyl-1,2,3,4,5,5a,6,10b-octahydroazepino[4,3-b]indole] | 0.158 | 2
13 | Cc1ccc2c(c1)[C@@H]1CN(C)CCC[C@H]1N2Cc1ccccc1 (relative stereo) [1.2.6(1), trans-6-benzyl-2,9-dimethyl-1,2,3,4,5,5a,6,10b-octahydroazepino[4,3-b]indole] | 0.126 | 0.631
14 | Cc1ccc2c(c1)[C@@H]1CN(C)CCC[C@H]1N2CCc1ccccn1 (relative stereo) [1.2.5(1), trans-2,9-dimethyl-6-[2-(pyridin-2-yl)ethyl]-1,2,3,4,5,5a,6,10b-octahydroazepino[4,3-b]indole] | 1 | 2.51
15 | Cc1ccc2[nH]c3c(c2c1)CN(S(=O)(=O)c1ccccc1)CCC3 [1.1.3.6(1), 2-phenylsulfonyl-9-methyl-1,2,3,4,5,6-hexahydroazepino[4,3-b]indole] | > 100 | > 100
16 | Cc1ccc2c(c1)[C@@H]1CN(C)CCC[C@H]1N2CCc1cccnc1 (relative stereo) [1.2.5(4), trans-2,9-dimethyl-6-[2-(pyridin-3-yl)ethyl]-1,2,3,4,5,5a,6,10b-octahydroazepino[4,3-b]indole] | 0.158 | 2.51
17 | Cc1ccc2[nH]c3c(c2c1)CN(C(=O)Nc1ccccc1)CCC3 [1.1.3.5(1), 2-phenylcarbamoyl-9-methyl-1,2,3,4,5,6-hexahydroazepino[4,3-b]indole] | > 100 | > 100
18 | Cc1ccc2c(c1)[C@@H]1CN(C)CCC[C@H]1N2CCc1ccncc1 (relative stereo) [1.2.5(3), trans-2,9-dimethyl-6-[2-(pyridin-4-yl)ethyl]-1,2,3,4,5,5a,6,10b-octahydroazepino[4,3-b]indole] | 0.158 | 1
19 | Cc1ccc2[nH]c3c(c2c1)CN(C(=O)c1ccccc1)CCC3 [1.1.3.4(1), 2-benzoyl-9-methyl-1,2,3,4,5,6-hexahydroazepino[4,3-b]indole] | > 100 | > 100
20 | Cc1ccc2c(c1)[C@@H]1CN(C)CCC[C@H]1N2C(=O)c1ccccc1 (relative stereo) [1.2.7(3), trans-6-benzoyl-2,9-dim ethyl-1,2,3,4,5,5a,6,10b-octahydroazepino[4,3-b]indole] | > 100 | > 100
21 | Cc1ccc2[nH]c3c(c2c1)CN(C)CCC3 [1.1.3.3(1), 2,9-dimethyl-1,2,3,4,5,6-hexahydroazepino[4,3-b]indole] | > 100 | > 100
22 | Cc1ccc2c(c1)[C@@H]1CN(C)CCC[C@H]1N2Cc1ccccn1 (relative stereo) [1.2.6(4), trans-2,9-dimethyl-6-(pyridin-2-ylmethyl)-1,2,3,4,5,5a,6,10b-octahydroazepino[4,3-b]indole] | 0.631 | 1.58
